# Data from US20210179940A1, “WIDE TEMPERATURE RANGE AND HIGH PHOTOCHEMICAL STABILITY SMECTIC LIQUID CRYSTAL COMPOSITIONS WITH A MONOLAYER SMECTIC A PHASE (SMA1), METHOD OF OBTAINING THEREOF AND DEVICES UTILIZING THEREOF” (WOJSKOWA AKADEMIA TECHNICZNA, priority 2017, published 2021).
# Read-outs that look alike come from different tables or passages of the source.
# Experiments:
# [1] = resistivity of fluorobenzene solutions of ionic compounds (bridge method); format: physicochemical; settings: for resistivity 10 kHz / resistivity 50 Hz: solution in C6H5F, 25° C.
# Method: The resistivity of the solution was measured by the bridge method using a Wyne Kerr Precision Component Analyzer 6425 and the measuring cells with electrodes of active area of 12.7 mm×12.7 mm. The electrodes were made of ITO. No orienting layers were deposited. The cell formed with two substrates with electrodes mentioned above was filled with the solution by capillary forces. The gap between electrodes was approx. 14.6 μm.
# [2] = conductivity of doped smectic A composition 18 in 15 μm cell; format: physicochemical; settings: prepared in fluorobenzene, 100 Hz, RT
# Description: The glass cells with a gap of 15 μm filled with the liquid crystal composition were used to measure conductivity and such a parameters of the DS effect as threshold voltage and saturation voltage. […] The orienting layer providing a homeotropic orientation of the molecular director of the smectic composition was obtained using a thin layer of SE1211 (by Nissan Chem.) polyimide, which was deposited on ITO electrodes with a spincoating method, then dried and cured. The testing cells were filled with the liquid crystals composition from the isotropic phase, and they were cooled to the room temperature (RT) and closed.
# The components were carefully mixed and then heated to temperature of 90° C. to evaporate the solvent. Then heating was continued under lower pressure (at 0.2 mmHg) for the total removal of the solvent and the composition was carefully mixed by shaking it at the isotropic state. […]
# [3] = solubility of ionic compounds in fluorobenzene
# Method: Fluorobenzene was used as solvent because it is chemically similar to the liquid crystalline composition used here.
# The examination was made in the following way: always the same mole amount of a ionic compound (0.00004 mol) was placed in 2 cm^3 of fluorobenzene. The mixture was mixed to dissolve the compound or to obtain equilibrium between the saturated solution and the solid. When a part of the compound was dissolved only, the sample of the saturated solution was taken (0.5 ml). The solvent was evaporated to dryness, the rest was weighted. Knowing the residue amount, the solubility was calculated.
# [4] = conductivity of doped smectic A composition 21 in 15 μm cell; format: physicochemical; settings: RT
# Description: The glass cells with a gap of 15 μm filled with the liquid crystal composition were used to measure conductivity and such a parameters of the DS effect as threshold voltage and saturation voltage. Transparent electrodes were formed from indium-tin oxide (ITO) of specific resistivity 100 Ohm/cm^2 and with surface 1.27×1.27 cm^2. The orienting layer providing a homeotropic orientation of the molecular director of the smectic composition was obtained using a thin layer of SE1211 (by Nissan Chem.) polyimide, which was deposited on ITO electrodes with a spincoating method, then dried and cured. The testing cells were filled with the liquid crystals composition from the isotropic phase, and they were cooled to the room temperature (RT) and closed.
# In Table 6 the properties of the composition 21 doped with an amidinium salt or potassium complex of a crown ether are compared. The composition 21 has the phase sequence Cr-SmA1-N-Iso and the higher value of dielectric anisotropy than composition 18.
# [5] = solubility in organic solvents noted at synthesis; format: physicochemical; settings: solvents named in the value
# [6] = composition 18, dopant 8.78 · 10^−3 mol/kg
# [7] = composition 21, dopant 6.58 · 10^−3 mol/kg, f = 100 Hz
# [8] = composition 18, dopant 6.58 · 10^−3 mol/kg
Compound,resistivity 10 kHz [1],resistivity 50 Hz [1],"conductivity σ [2, 6]",solubility in C6H5F [3],"solubility in C6H5F ([3]; fluorobenzene, 25° C.)",other results
"1-hexadecyl-1,8-diazabicyclo[5,4,0]undec-7-enium 3,5-difluoro-4-cyanophenolate [II.16n]",3.8 · 10^5 Ohm · cm,3.9 · 10^5 Ohm · cm,1.8 · 10^−8 Ohm^−1cm^−1,>0.02 mol/dcm^3,–,"resistivity of I.16b, times higher than that of the compound ([1]; solution in fluorobenzene): 140 times"
"1-hexadecyl-1,8-diazabicyclo[5.4.0]undec-7-enium 3,4-difluorophenolate [II.16k]",–,–,–,>0.02 >0.02 >0.02 >0.02 mol/dcm^3,–,–
"1-hexadecyl-1,8-diazabicyclo[5.4.0]undec-7-enium 4-dodecylbenzenesulphonate [II.16g12]",1.9 · 10^6 Ohm · cm,2.1 · 10^6 Ohm · cm,1.1 · 10^−9 Ohm^−1cm^−1,–,>0.02 mol/dcm^3,"specific conductivity σ [4, 7]: 7.42 · 10^−10 Ohm^−1cm^−1"
"CCCCCCCCCCCCCCCC[N+](C)(C)C.[Br-] [I.16b, hexadecyltrimethylammonium bromide, reference compound]",5.2 · 10^7 Ohm · cm,5.0 · 10^7 Ohm · cm,–,0.00274 mol/dcm^3,–,solubility compared with the ionic compounds of the disclosure [3]: lower at least ten times
"CC[N+]12CCCCCC1=NCCC2.[Br-] (stereo not shown) [II.2b, 1-ethyl-1,8-diazabicyclo[5.4.0] undec-7-enium bromide]",–,–,–,–,0.0077 mol/dcm^3,"conductivity σ [2, 8]: 3.0 · 10^−9 Ohm^−1cm^−1; solubility [5]: well soluble in ethanol and ethyl acetate"
"CCCCCCCCCCCCCCCC[N+]1=C2CCCCCN2CCC1 [II.16b, 1-hexadecyl-1,8-diazabicyclo[5.4.0]undec-7-enium bromide]",–,–,–,>0.02 >0.02 >0.02 >0.02 mol/dcm^3,–,solubility [5]: well soluble in methanol and chloroform
"CCCCCCCCCCCCCCCC[N+]1=C2CCCCCN2CCC1 [II.16c, 1-Hexadecyl-1,8-diazabicyclo[5.4.0]undec-7-enium chlorate (VII)]",0.84 · 10^6 Ohm · cm,1.0 · 10^6 Ohm · cm,4.6 · 10^−10 Ohm^−1cm^−1,>0.02 >0.02 >0.02 >0.02 mol/dcm^3,–,solubility [5]: well soluble in methanol and ethyl acetate
"CCCCCCCCCCCCCCCC[N+]1=C2CCCCCN2CCC1 [II.16d, 1-hexadecyl-1,8-diazabicyclo[5.4.0]undec-7-enium 1,1,1-trifluoromethanesulphonate]",–,–,–,>0.02 >0.02 >0.02 >0.02 mol/dcm^3,–,–
"C1COCCOCCOCCOCCOCCO1.CCCCCCCCCCCCc1ccc(S(=O)(=O)[O-])cc1.[K+] [III.g12, complex of 18-crown-6 ether with potassium 4-dodecylbenzenesulphonate]",–,–,–,–,>0.02 mol/dcm^3,"specific conductivity σ ([4]; composition 21, 0.1 wt % dopant + 0.3 wt % stabilizer of formula 29, f = 100 Hz): 7.0 · 10^−9 Ohm^−1cm^−1"
"C1COCCOCCOCCOCCOCCO1.[K+].[O-]c1ccc(F)c(F)c1 [IIIk, complex of 18-crown-6 ether with potassium 3,4-difluorophenolate]",–,–,–,–,> 0.02 mol/dcm^3,"conductivity σ [2, 8]: 2.7 · 10^−9 Ohm^−1cm^−1; conductivity σ ([2]; composition 18, dopant 6.58 · 10^−3 mol/kg, listed as III.k): 2.7·10^−9 Ohm^−1cm^−1"
"CCCCCCCCCCCCc1ccc(S(=O)(=O)[O-])cc1.[K+].c1ccc2c(c1)OCCOCCOc1ccccc1OCCOCCO2 [IVg12, Complex of dibenzo-18-crown-6 ether with potassium 4-dodecylbenzenesulphonate]",4.5 · 10^5 Ohm · cm,6.0 · 10^5 Ohm · cm,2.7 · 10^−10 Ohm^−1cm^−1,–,>0.02 mol/dcm^3,"specific conductivity σ [4, 7]: 4.68 · 10^−10 Ohm^−1cm^−1"
"CCCCCCCCc1ccc([O-])cc1.[K+].c1ccc2c(c1)OCCOCCOc1ccccc1OCCOCCO2 [IVh8, complex of dibenzo-18-crown-6 ether with potassium 4-octylphenolate]",–,–,1.4 · 10^−10 Ohm^−1cm^−1,–,0.0107 mol/dcm^3,–
"[K+].[O-]c1ccc(F)c(F)c1.c1ccc2c(c1)OCCOCCOc1ccccc1OCCOCCO2 [IVk, complex of dibenzo-18-crown-6 ether with potassium 3,4-difluorophenolate]",0.95 · 10^6 Ohm · cm,1.1 · 10^6 Ohm · cm,4.1 · 10^−9 Ohm^−1cm^−1,–,> 0.02 mol/dcm^3,–
"N#Cc1c(F)cc([O-])cc1F.[K+].c1ccc2c(c1)OCCOCCOc1ccccc1OCCOCCO2 [IVn, complex of dibenzo-18-crown-6 ether with potassium 3,5-difluoro-4-cyanophenolate]",4.6 · 10^5 Ohm · cm,4.2 · 10^5 Ohm · cm,8.1 · 10^−9 Ohm^−1cm^−1,–,>0.02 mol/dcm^3,"conductivity σ ([2]; composition 18, dopant 2.19 · 10^−3 mol/kg): 2.19 · 10^−9 Ohm^−1cm^−1"
complex of 18-crown-6 ether with potassium bromide [IIIb],–,–,–,–,–,"conductivity σ [2, 8]: 1.1 · 10^−9 Ohm^−1cm^−1"
complex of 18-crown-6 ether with sodium dodecyl-1-sulphonate [V.e12],–,–,–,–,–,"conductivity σ [2, 8]: 3.7 · 10^−10 Ohm^−1cm^−1"
complex of dibenzo-18-crown-6 ether with potassium bromide [IVb],–,–,–,–,–,"conductivity σ [2, 8]: 2.2 · 10^−10 Ohm^−1cm^−1"
complex of dibenzo-18-crown-6 ether with potassium chlorate (VII) [IVc],2.9 · 10^7 Ohm · cm,4.2 · 10^7 Ohm · cm,1.5 · 10^−10 Ohm^−1cm^−1,–,< 0.002 mol/dcm^3,"resistivity ([1]; solution in fluorobenzene, frequency not stated): 4.2·10^7 Ohm·cm"
